molecular target: T1, ENaC (Epithelial Sodium Channel) (Mus musculus, UniProt Q61180+Q9WU38+Q9WU39); experiment: Ussing chamber: inhibition of amiloride sensitive short circuit current (I_sc) in M-1 cells; format: cell-based; conditions: mouse kidney M-1 cells
T1 construct: Mouse kidney M-1 cells were cultivated in DMEM; endogenous in cells; host or cells: Mouse kidney M-1 cells (dexamethasone-treated, on transwell filters)
T1 sequence (Q61180 1-699): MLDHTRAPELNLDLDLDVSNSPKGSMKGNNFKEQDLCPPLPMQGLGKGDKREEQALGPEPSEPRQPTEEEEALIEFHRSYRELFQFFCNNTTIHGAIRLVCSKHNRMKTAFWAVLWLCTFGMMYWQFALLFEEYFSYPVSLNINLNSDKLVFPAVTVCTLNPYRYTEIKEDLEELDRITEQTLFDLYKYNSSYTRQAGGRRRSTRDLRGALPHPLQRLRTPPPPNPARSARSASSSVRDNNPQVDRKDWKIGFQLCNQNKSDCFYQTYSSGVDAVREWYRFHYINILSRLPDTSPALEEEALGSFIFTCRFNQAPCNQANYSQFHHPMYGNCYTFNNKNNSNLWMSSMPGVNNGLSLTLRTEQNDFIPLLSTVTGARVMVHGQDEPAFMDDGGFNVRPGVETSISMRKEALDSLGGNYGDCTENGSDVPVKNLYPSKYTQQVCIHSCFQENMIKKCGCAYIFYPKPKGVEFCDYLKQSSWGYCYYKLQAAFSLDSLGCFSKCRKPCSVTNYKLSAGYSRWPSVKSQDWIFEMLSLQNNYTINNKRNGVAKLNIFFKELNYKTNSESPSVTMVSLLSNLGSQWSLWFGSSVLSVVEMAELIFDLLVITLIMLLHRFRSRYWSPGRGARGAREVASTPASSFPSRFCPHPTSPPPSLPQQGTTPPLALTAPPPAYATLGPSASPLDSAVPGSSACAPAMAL
T1 sequence (Q9WU38 1-638): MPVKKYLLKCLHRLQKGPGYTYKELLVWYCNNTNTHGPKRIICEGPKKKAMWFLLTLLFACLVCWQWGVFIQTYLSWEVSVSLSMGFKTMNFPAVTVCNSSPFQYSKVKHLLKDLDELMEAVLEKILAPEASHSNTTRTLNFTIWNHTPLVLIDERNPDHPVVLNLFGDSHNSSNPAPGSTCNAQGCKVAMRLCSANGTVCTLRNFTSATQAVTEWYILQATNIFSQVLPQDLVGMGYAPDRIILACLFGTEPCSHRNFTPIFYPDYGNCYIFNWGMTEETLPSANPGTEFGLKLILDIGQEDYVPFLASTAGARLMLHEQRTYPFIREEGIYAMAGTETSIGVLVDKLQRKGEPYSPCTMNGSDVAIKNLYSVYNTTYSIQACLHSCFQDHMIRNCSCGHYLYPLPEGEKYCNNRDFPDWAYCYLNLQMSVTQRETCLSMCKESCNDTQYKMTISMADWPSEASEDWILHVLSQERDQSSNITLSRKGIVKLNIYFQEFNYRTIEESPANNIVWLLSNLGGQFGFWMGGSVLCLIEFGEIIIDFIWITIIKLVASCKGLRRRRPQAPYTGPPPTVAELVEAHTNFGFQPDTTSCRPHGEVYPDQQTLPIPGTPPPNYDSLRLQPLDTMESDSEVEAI
T1 sequence (Q9WU39 1-655): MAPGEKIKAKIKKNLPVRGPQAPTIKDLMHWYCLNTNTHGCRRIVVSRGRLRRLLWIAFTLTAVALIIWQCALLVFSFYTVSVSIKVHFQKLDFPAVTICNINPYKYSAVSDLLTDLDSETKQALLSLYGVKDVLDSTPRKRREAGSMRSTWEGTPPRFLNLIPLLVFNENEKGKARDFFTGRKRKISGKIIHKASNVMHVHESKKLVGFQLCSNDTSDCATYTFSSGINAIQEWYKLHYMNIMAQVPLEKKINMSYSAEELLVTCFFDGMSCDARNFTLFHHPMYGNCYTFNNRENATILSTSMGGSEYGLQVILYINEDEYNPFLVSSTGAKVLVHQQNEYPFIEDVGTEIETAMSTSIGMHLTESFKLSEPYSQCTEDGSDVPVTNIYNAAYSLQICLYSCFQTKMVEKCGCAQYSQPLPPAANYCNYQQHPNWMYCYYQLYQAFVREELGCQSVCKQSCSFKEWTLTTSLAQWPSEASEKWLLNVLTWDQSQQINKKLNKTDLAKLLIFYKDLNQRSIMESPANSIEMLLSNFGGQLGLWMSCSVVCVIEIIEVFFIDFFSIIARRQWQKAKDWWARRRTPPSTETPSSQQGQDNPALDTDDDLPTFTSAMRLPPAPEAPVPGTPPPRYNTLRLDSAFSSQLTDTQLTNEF
Method in brief: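 Mouse kidney M-1 cells grown 10-12 days on transwell filters with 5 μM dexamethasone; I_sc recorded under voltage clamp at 37° C in Caco-2 transport buffer. Compounds added apically at 3 μM or 1-3-10 μM; 3 μM apical amiloride added at the end defines the amiloride-sensitive current; results as % inhibition of amiloride effect or IC50.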

Row | Structure (SMILES) | IC50
1 | NC(=NC(=O)c1nc(Cl)c(N)nc1N)NC1CCN(Cc2ccc(OCC(=O)O)c(OCC(=O)O)c2)CC1 [Example 8.5] | 151 nM
2 | NC(=NC(=O)c1nc(Cl)c(N)nc1N)NC1CCN(Cc2cc(C(=O)O)cc(C(=O)NCCOCCO)c2)CC1 [Example 8.6] | 53 nM
3 | NC(=NC(=O)c1nc(Cl)c(N)nc1N)NC1CCN(Cc2ccccc2C(=O)O)CC1 [Example 8.7] | 243 nM
4 | N/C(=N\C(=O)c1nc(Cl)c(N)nc1N)NC1CCN(Cc2ccc(OCC(=O)O)cc2)CC1 [Example 8.8] | 86 nM
5 | COc1cc(C(=O)O)ccc1CN1CCC(NC(N)=NC(=O)c2nc(Cl)c(N)nc2N)CC1 [Example 8.9] | 74 nM
6 | NC(=NC(=O)c1nc(Cl)c(N)nc1N)NC1CCN(Cc2cccc(CC(=O)O)c2)CC1 [Example 8.10] | 24 nM
7 | NC(=NC(=O)c1nc(Cl)c(N)nc1N)NC1CCN(Cc2ccc(C(=O)O)cc2Cl)CC1 [Example 8.11] | 50 nM
8 | NC(=NC(=O)c1nc(Cl)c(N)nc1N)NC1CCN(Cc2ccc(Cn3cc(C(=O)O)ccc3=O)cc2)CC1 [Example 8.12] | 39 nM
9 | NC(=NC(=O)c1nc(Cl)c(N)nc1N)NC1CCN(Cc2ccc(CC(=O)O)cc2)CC1 [Example 8.13] | 44 nM
10 | NC(=NC(=O)c1nc(Cl)c(N)nc1N)NC1CCN(Cc2ccc(CCC(=O)O)cc2)CC1 [Example 8.14] | 30 nM

Other lines, results leading:

Row | IC50 | Structure (SMILES)
11 | 37 nM | NC(=NC(=O)c1nc(Cl)c(N)nc1N)NC1CCN(Cc2cccc(OCC(=O)O)c2)CC1 [Example 8.15]
12 | 31 nM | NC(=NC(=O)c1nc(Cl)c(N)nc1N)N[C@H]1CCN(Cc2ccc(OCC(=O)O)cc2)C1 [Example 8.16]
13 | 7 nM | NCc1ccc(CN2CCC(N/C(N)=N/C(=O)c3nc(Cl)c(N)nc3N)CC2)cc1 [Example 9.1]
14 | 3 nM | NC(N)=NCc1ccc(CN2CCC(N/C(N)=N/C(=O)c3nc(Cl)c(N)nc3N)CC2)cc1 [Example 10.1]
